Read-outs that look alike come from different tables or passages of the source.
Tests used:
[1] = test system: human colorectal cancer cells; conditions: in-vitro; cited from earlier work
[2] = test system: human thyroid cancer cells; conditions: in vitro; cited from earlier work
[3] = Monitoring of treated cancer patients for manifestations of zinc toxicity; assay type: in vivo, human; conditions: for toxic effects of zinc treatment: oral 600 mg per day 5 months, 900 mg per day 4 months
Procedure: Step 4: Periodically monitoring the status of the afflicted human subject during the therapeutic treatment regimen to confirm that no manifestations of zinc toxicity appear.
The levels of zinc can be monitored in plasma by conventional blood test. A medically normal concentration of zinc in human plasma is about 100 μg/100 mL.
The oncologist or physician should therefore periodically examine their patient in two ways during treatment:
First, the patient should be physically examined on a regular time basis for symptoms of zinc toxicity. As noted above, the risk and dangers of zinc toxicity in humans can occur in both acute and chronic forms; and symptoms of zinc toxicity can appear as nausea, vomiting, loss of appetite, abdominal cramps, diarrhea, and headaches.
Second, samples of the patient's blood should be taken routinely and regularly tested for zinc content using the blood chemistry assays and instrumentation conventionally known and commercially sold for this purpose. Although the values for the individual patient will likely vary considerably, the test results should approximate the medically normal concentration of zinc in human plasma of about 100 μg/100 mL.
In addition, although it is considered very unlikely that any manifestations of zinc toxicity will appear in an individual patient over the duration of therapeutic treatment with the present invention, it is deemed to be proper and necessary to verify that no serious manifestations of zinc toxicity appear regardless of how long the treatment regimen is continued. This is considered to be especially important in view of the likelihood of months and years of therapeutic treatment for some patients. Accordingly, the testing for undesirable zinc effects and toxicity should continue concurrently with and over the full duration of the therapeutic treatment for the patient.

metastatic melanoma = experiment: Clinical Case History 2: oral zinc salt treatment of a patient with metastatic melanoma; assay type: in vivo, human; conditions: oral 600 mg per day; for edema of right leg: July 2009 follow-up; for metastatic nodes in abdominal cavity, computer tomography and ultrasound: Oct. 20, 2009, then 900 mg per 24 hours July-October 2009
Procedure: In November 2008, the skin lesion became progressively larger and ulcerated. Then in December 2008, a skin tumor resection and dissection of an enlarged right inguinal lymph nodes were performed, yielding melanoma and inguinal lymph nodes with metastatic disease.
In January 2009, a course of conventional chemotherapy was prescribed and performed for the patient.
The patient was subsequently discharged from the hospital, with a poor prognosis (up to 2 months survival time).
The patient then began orally taking Zinc Picolinate at a 600 mg per day dosage. They orally ingested Zinc Picolinate daily, for 5 months time (from February, 2009 to May, 2009); and then Zinc Sulfate daily for 1 month (June, 2009) at a dose of 600 mg per day (300 mg twice a day with a meal) and for 4 months (from July, 2009 to October, 2009) at a dose of 900 mg per 24 hours (300 mg every 8 hours with a meal).

[4] = test system: human prostate cancer cells; conditions: cited from earlier work
[5] = 80 mg per day of zinc for 6.3 years on average; cited from earlier work
[6] = target: GSK-3 (Glycogen Synthase Kinase-3) (Homo sapiens, UniProt P49841); conditions: cited from earlier work
Chain of GSK-3 (Glycogen Synthase Kinase-3) (P49841 whole entry): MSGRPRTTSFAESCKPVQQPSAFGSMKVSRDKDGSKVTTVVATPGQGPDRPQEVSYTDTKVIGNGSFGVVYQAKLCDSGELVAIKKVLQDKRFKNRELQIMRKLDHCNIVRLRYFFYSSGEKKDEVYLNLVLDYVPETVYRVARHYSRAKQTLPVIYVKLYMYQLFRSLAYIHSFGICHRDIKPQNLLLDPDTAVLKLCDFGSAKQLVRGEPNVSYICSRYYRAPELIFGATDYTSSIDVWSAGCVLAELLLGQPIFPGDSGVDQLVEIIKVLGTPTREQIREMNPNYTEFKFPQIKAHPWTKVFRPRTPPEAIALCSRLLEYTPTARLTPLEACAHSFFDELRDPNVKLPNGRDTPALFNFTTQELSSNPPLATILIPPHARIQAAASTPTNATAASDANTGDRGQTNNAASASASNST

[7] = cited from earlier work
[8] = human, cited from earlier work
HIPK2i cells = conditions: zinc added to culture medium concomitant with adriamycine (ADR); cited from earlier work
[9] = after ingesting 4 grams (570 milligrams of elemental zinc); cited from earlier work
[10] = test system: lung cancer (squamous cell carcinoma); experiment: Clinical Case History 3: oral zinc salt treatment of a lung cancer patient after radiotherapy; assay type: in vivo, human
Procedure: A person afflicted with lung cancer (tumor stenosis of right upper lobe bronchus, squamous cell carcinoma) had been conventionally treated with radiotherapy.
The patient then began to take Zinc Picolinate daily, for 1 month, at a dose of 600 mg per day (orally ingested as 300 mg of Zinc Picolinate taken twice a day with meals). […] The patient continued to take Zinc Picolinate orally from August, 2009 till October, 2009—but at a dose of 900 mg per day (orally ingested as 300 mg of Zinc Picolinate every 8 hours with meals).

[11] = test system: squamous cell carcinoma of the lung; experiment: Clinical Case History 1: oral zinc salt treatment of a lung cancer patient; assay type: in vivo, human
Procedure: A person was admitted to hospital with a cough, life threatening hemoptysis on Jan. 30, 2009. […] Because the patient denied either operation or chemotherapy, their survival prognosis was poor, up to 2 months survival time.
The patient then began taking Zinc Picolinate, orally, at a dose concentration of 200 mg a day. The patient orally ingested Zinc Picolinate daily, for 5 months (from February, 2009 to July, 2009) at a concentration of 200 mg per day, as a dose of 100 mg ingested twice a day with a meal. To date, the patient has not taken any other chemotherapeutic anticancer drug/agent, nor has undergone any other form of conventional cancer treatment.
The patient has been orally ingesting 200 mg of Zinc Picolinate per day for nearly six calendar months time. […] The patient has been orally taking 600 mg of Zinc Picolinate daily from August, 2009 to October, 2009.

[12] = water and aqueous based fluids, cited from earlier work
[13] = Case History 2, metastatic melanoma
[14] = Case History 2, metastatic melanoma, oral 600-900 mg per day

Compound: [Cl-].[Cl-].[Zn+2] [Zinc Chloride]
- proliferation [1]: inhibits proliferation
- apoptosis [2]: induces apoptosis
- proliferation [2]: inhibits proliferation

Compound: O=S(=O)([O-])[O-].[Zn+2] [Zinc Sulfate]
- toxic effects of zinc treatment [3, 13]: no toxic effects
- weight loss [3, 14]: no weight loss
- edema of right leg (metastatic melanoma): significantly decreased
- metastatic nodes in abdominal cavity, computer tomography and ultrasound (metastatic melanoma): complete regression
- apoptosis [4]: induce apoptosis
- proliferation [4]: inhibit proliferation

Compound: [O]=[Zn] [zinc oxide]
- hospitalizations for genitourinary causes [5]: significant increase

Compound: [Zn] [zinc]
- IC50 [6]: 15 µM
- level of zinc in diet known to cause chronic zinc toxicosis [7]: > 2,000 ppm
- intake with reported reductions in a copper-containing enzyme (marker of copper status) ([8]; up to 10 weeks): approximately 60 mg/day
- intake associated with chronic effects: low copper status, altered iron function, reduced immune function, reduced high-density lipoproteins [8]: 150-450 mg of zinc per day
- wtp53 transcription activity (HIPK2i cells): restored wtp53 transcription activity

Compound: Zinc Gluconate
- time to severe nausea and vomiting [9]: ≤ 30 min

Compound: Zinc Picolinate
- overall physical condition (cough, shortness of breath) ([10]; 600 mg per day 1 month, then 900 mg per day 3 months): significant improvement
- tumor size, bronchoscopy ([10]; Oct. 21, 2009, 600 mg per day 1 month, then 900 mg per day August-October 2009): significant decrease
- right upper lobe bronchus previously obstructed by tumor, bronchoscopy ([10]; Oct. 21, 2009, 90% of bronchial lumen obstructed Jun. 14, 2009, 600 then 900 mg per day): complete opening
- decrease in the size of the lung tumor, X-ray examination ([10]; after one month oral 600 mg per day (300 mg twice a day)): 2 fold
- weight loss ([3]; Case History 1, lung cancer, nine months oral treatment, 200 then 600 mg per day): no weight loss
- toxic effects of treatment ([3]; Case History 1, lung cancer, oral 200 mg per day, later 600 mg per day): no toxic effects
- toxic effects of zinc treatment [3, 13]: no toxic effects
- weight loss [3, 14]: no weight loss
- zinc toxic effects ([3]; Case History 3, lung cancer, oral 600 mg per day 1 month, 900 mg per day 3 months): no zinc toxic effects
- weight loss ([3]; Case History 3, lung cancer, oral 600-900 mg per day): no weight loss
- zinc toxicity ([3]; three cancer patients (Case Histories 1-3), 200 mg to 900 mg per day, daily for 4-9 months): no zinc toxicity
- edema of right leg (metastatic melanoma): significantly decreased
- metastatic nodes in abdominal cavity, computer tomography and ultrasound (metastatic melanoma): complete regression
- signs of cancer progression ([11]; November 2009, nine months of treatment: 200 mg per day, then 600 mg daily August-October 2009): no signs of cancer progression
- clinical outcome of treatment (tumor growth, disease status) ([11]; oral 200 mg per day (100 mg twice a day), 5 months, no other cancer treatment): suppression of tumor growth and stabilization of the disease
- right pleural effusion, computer tomography ([11]; oral 200 mg per day about 5 months, Jul. 1, 2009, effusion present Jan. 14, 2009): no right pleural infusion
- changes in the size of enlarged subcarinal lymph nodes, computer tomography ([11]; oral 200 mg per day about 5 months, Jul. 1, 2009 vs Jan. 14, 2009): no meaningful changes
- changes in the size of primary lung tumor, computer tomography ([11]; person, oral 200 mg per day (100 mg twice a day) about 5 months, Jul. 1, 2009 vs Jan. 14, 2009): no substantive changes
- Water Solubility [12]: slightly soluble
- Water Solubility ([12]; listed as zinc picolinate): only slightly soluble

Source: US20110117210A1, “Therapeutic treatment of human cancers using simple salts of zinc” (priority 2009, published 2011)
